# Measured values published in patent publication US20050267020A1, “Polypeptides derived from inducible hsp70 and pharmaceutical compositions containing the same” (priority 2001, published 2005).
# Tests used:
# [1] = test system: human CD8+ cells; experiment: Generation of CTL from human PBMC with peptide- or polyepitope-pulsed dendritic cells, intracellular IFN-γ staining; assay type: cell-based; details: CD8+ cells stimulated with peptide-loaded dendritic cells
# Protocol: The three graphs entitled hCTL380, hCTL391 and hCTL393 represent respectively the testing of p380, p391 and p393-specific human CTLs. P391 and p393 specific CTLs were tested towards EBV-B cells, whereas p380 specific CTLs were tested towards T2 cells. The number of IFN-γ producing CD8+ cells for 10^5 CD8+ cells upon activation, indicated on the X-axis, was measured, as assessed by staining cells for CD8 and intracellular IFN-γ.
# Polyepitope induced human CTL were tested for their capacity to respond to T2 cells loaded with p380, p391 or p393 or the irrelevant HIVpol589 peptides in intracellular IFN-γ staining. The X axis represents the number of IFNγ-producing CTL/10^5 CD8+ cells. On the Y axis, upper to lower bars represent the results obtained when cells were loaded respectively with irrelevant HIV pol589 peptides, or with p380, p391 or p393 peptides.
# Generation of CTL from Human Peripheral Blood Mononuclear Cells (PBMC). Fresh PBMC collected from healthy donnors under informed consent were serologically typed for the studied HLA-class I molecule, and purified using standard Ficoll-Paque (Amersham Pharmacia Biotech AB). Dendritic cells (DC) were prepared by cultivating plastic adherent PBMC in the presence of 500 U/mL GM-CSF (R&D Systems Inc. MN) and 500 U/mL IL-4 (R&D Systems Inc. MN) for 7 days such as described in Keogh et al. (30).
# DC were then maturated for 2 days with 2 μg/mL anti-CD40 antibody and 100 ng/mL Poly I:C (Sigma-Aldrich). […] Autologous CD8+ purified T-cells (CD8 MicroBeads, Miltneyi Biotec Inc. CA) were stimulated weekly with DC pulsed for two hours with peptide (10 μM) and irradiated at 35Gy at a T:DC ratio of 10:1 in culture medium (CM; RPMI 1640 supplemented with 10% human AB serum, […] L-glutamine and gentamycin). 1×10^3 U/mL IL-6 and SU/mL IL-12 (R&D Systems Inc. MN) were added during the first week of culture. 20 U/mL clinical grade IL-2 (Proleukin, Chiron Corp.) and 10 ng/mL IL-7 (R&D Systems Inc. MN) were added during the next two weeks of culture. 7 days after the last stimulation with DC, peptide specific IFN-γ secreting CD8+ T cells were magnetically sorted following encounter of the peptide presented by HLA-A*0201+ B-EBV cells (IFN-γ Secretion Assay, Miltenyi Biotec Inc. CA). The characterization of peptide-specific T cells was tested 7 days after the purification step.
# Intracellular IFN-g Staining. 5×10^4 T cells were incubated with 10^5 stimulating peptide loaded EBV-B cells or with 10^5 tumor cells in the presence of 20 μg/ml brefeldin-A (Sigma, Oakville, Canada). Six hours later, they were washed, stained with r-phycoerythrin-conjugated anti-CD8 antibody (Caltag Laboratories, Burlingame, Calif.) in PBS for 25 min at 4° C., washed and fixed with 4% PFA. Then, cells were permeabilized with PBS 0.5% BSA 0.2% saponin (Sigma, Oakville, Canada), and stained with allophycocyanin-conjugated anti-IFNg mAb (PharMingen, Mississauga, Canada) for 25 min at 4° C. Cells were analyzed on FACSCalibur (Becton Dickinson, Mountain View, Calif.).
# [2] = test system: COS cells transfected with both Hsp70 and HHD expression vectors; experiment: Peptide processing assay on COS-transfected cells, TNF-α secretion by murine CTL; assay type: cell-based, simian
# Text: After contact of murine CTL lines with transfected COS cell, CTL recognition of COS cells is expressed as CTL secretion of TNF-α dosed in supernatant (X Axis, TNF-α ranges from 0 to 500 pg/ml). The graphs represent TNF-α dosage by cytotoxic cell lines, respectively mCTL380, mCTL391 mCTL393 and mCTL134, after contact with COS cells. In each graph, upper to lower bars represent the different cells in contact with CTL, respectively: negative control (no COS cell), COS cells, COS cells transfected with Hsp70 expression plasmid, COS cells transfected with HHD expression plasmid, positive control (COS cells transfected with HHD and pulsed with the respective peptide), COS cells transfected with HHD and with Hsp70 expression plasmids.
# Peptide Processing Assay on COS-Transfected Cells. 2.2×10^4 simian COS cells were plated in flat-bottom 96 well plates in DMEM 10% FCS, in quadruplicates for each condition. 18 hours later, the medium is discarded, and 100 ng of each DNA plasmid, encoding for Hsp70 and HLA class I molecules, is put in contact with COS cells in DMEM 10% Nuserum […] Chloroquine 10 mg/mL DEAE Dextran. After 4 hours of incubation at 37° C., transfection medium is discarded, and 50 μL PBS 10% DMSO is added for 2 minutes for integration of plasmids. It is then discarded and transfected COS cells are placed in DMEM 10% FCS for 40 hours. Transfected COS cells are then used with 5×10^4 murine CTL in a TNF-α secretion assay.
# TNF-α Secretion Assay. Transfected COS cells on day 4 or 10^5 target tumor cells were plated in 50 μL RPMI 10% FCS and when necessary incubated with 10 μM peptide for 1 hour. In blocking experiments, anti-HLA class I antibody w6/32 or an irrelevant antibody were incubated with target cells for 1 h30. 5×10^4 T cells were then added in 50 μL RPMI 10% FCS and incubated for 6 hours. Each condition was tested in quadruplicates. 50 μL of the supernatant was collected. Standard dilutions were prepared in 50 μL with final doses of TNF-α (kindly provided by I. Apfler, Bender Wien, Austria) ranging from 10^4 to 0.08 pg/mL. On both the supernatants and the standards were added 50 μL of 3×10^4 TNF-α sensitive WEHI-164c13 cells. They were incubated for 16 hours at 37° C. (23). Inhibition of cell proliferation was evaluated by the MTT colorimetric method. Briefly, 50 μL of MTT at 2.5 mg/mL (Sigma-Aldrich) was added and incubated for 4 hours at 37° C. Cells were then lyzed with 100 μL of a pH4.7 33% N,N-dimethyl formamide (Sigma-Aldrich) 20% SDS solution in water. Two hours after cells lysis, OD was measured at 550 nm on a Dynatech MR5000 spectrophotometer. TNF-α quantitation was calculated by linear interpolation with the standard dilutions.
Sequence,induction of specific human CTL [1],processing of the peptide: recognition of Hsp70 + HHD transfected COS cells by the specific murine CTL line [2]
LMGDKSENV [HSP 380],capable of stimulating specific human CTL,are epitopes
YLGYPVTNAV [HSP 134(10)],capable of stimulating specific human CTL,are epitopes
LLLLDVAPL [HSP 391],capable of stimulating specific human CTL,are epitopes
